In brackets after ≈: the same amount, converted by molar mass. Where two headings read alike, the source gives them in different places.
Legend:
Proteus vulgaris GN76 = assay: Synergistic effect on MIC, microdilution transfer plate technique; format: cell-based
[1] = test system: Citrobacter Freundii GN346; assay: as above; format: cell-based
[2] = Stability (half life) in phosphate buffers of various pH; format: physicochemical; settings: 28° C.
Protocol: By adding 2% sodium hydroxide or 10% hydrochloric acid, the pH of 0.05 M phosphate buffer is adjusted to 4, 5, 6, 7, 8 and 9, respectively, and distributed into test tubes in an amount of 3 ml. Concentrated solution of antibiotic OA-6129A (0.05 ml) is added to each test tube and allowed to stand in a thermostatic chamber of 28° C. The time course curve of the concentration decrease of antibiotic OA-6129A is drawn by spectrophotometric measurement at 300 nm, from which the half life of the antibiotic at the indicated pH is calculated. As a control, antibiotic PS-5, a carbapenem compound described in the above-cited reference is simultaneously tested.

ddY mice = settings: mouse, in vivo, ip, 500 mg/kg
S. aureus Smith = assay: MIC by agar dilution method; format: cell-based; settings: Staphylococcus aureus, 37° C., 18 hours
Protocol: (§1) The MIC is measured by an agar dilution method based on the standard method of the Japanese Society of Chemotherapy (Japanese Society of Chemotherapy: The Revised Method of Determination of MIC Values, Chemotherapy 22, 1126-1128, […]). Specifically, the antibiotic is serially diluted with a 1/50 M phosphate buffer at a pH of 7.3 to prepare a twofold dilution series. One milliliter of each dilution and 9 ml of an agar medium (Heart Infusion Agar; a product of Difco Laboratories) are mixed and allowed to solidify in a Petri dish having a diameter of 9 cm. One loopful of the stock culture of the test microbe is inoculated in trypto-soy buillon (a product of Eiken Kagaku Co., Ltd.) and incubated at 37° C. for 18 hours. The resulting culture broth is diluted to a concentration of about 10^6 cells/ml with physiological saline and inoculated on the agar plate by means of a microplanter.

Comamonas terrigena B996 = assay: MIC by agar dilution method; format: cell-based; settings: 37° C., 18 hours
Protocol: as §1

Ser. marcesceus T55 = assay: MIC by agar dilution method; format: cell-based; settings: 37° C., 18 hours
Protocol: as §1

[3] = test system: Klebsiella pneumoniae K13; assay: MIC by agar dilution method; format: cell-based; settings: 37° C., 18 hours
Protocol: as §1

[4] = test system: Citrobacter Freundii GN346; assay: MIC by agar dilution method; format: cell-based; settings: 37° C., 18 hours
Protocol: as §1

S. epidermidis = assay: MIC by agar dilution method; format: cell-based; settings: Staphylococcus epidermidis, 37° C., 18 hours
Protocol: as §1

Sarcina lutea S19 = assay: MIC by agar dilution method; format: cell-based; settings: Micrococcus luteus, 37° C., 18 hours
Protocol: as §1

[5] = test system: Staphylococcus aureus 209P; assay: MIC by agar dilution method; format: cell-based; settings: 37° C., 18 hours
Protocol: as §1

Providencia sp. P8 = assay: MIC by agar dilution method; format: cell-based; settings: Providencia sp. P8; agar dilution, 37° C., 18 hours; read-out: MIC
Protocol: as §1

Ent. cloacae 45 = assay: MIC by agar dilution method; format: cell-based; settings: Enterobacter cloacae, 37° C., 18 hours
Protocol: as §1

S. aureus Russell = assay: MIC by agar dilution method; format: cell-based; settings: Staphylococcus aureus; S. aureus Russell; agar dilution, 37° C., 18 hours; read-out: MIC
Protocol: as §1

P. vulgaris GN76 = assay: MIC by agar dilution method; format: cell-based; settings: Proteus vulgaris, 37° C., 18 hours
Protocol: as §1

P. rettgeri P7 = assay: MIC by agar dilution method; format: cell-based; settings: Providencia rettgeri; P. rettgeri P7; agar dilution, 37° C., 18 hours; read-out: MIC
Protocol: as §1

[6] = test system: Enterobacter aerogenes E19; assay: MIC by agar dilution method; format: cell-based; settings: Klebsiella aerogenes, 37° C., 18 hours
Protocol: as §1

Alcaligenes Faecolis A1 = assay: MIC by agar dilution method; format: cell-based; settings: Alcaligenes Faecolis A1; agar dilution, 37° C., 18 hours; read-out: MIC
Protocol: as §1

Proteus mirabilis P6 = assay: MIC by agar dilution method; format: cell-based; settings: Proteus mirabilis P6; agar dilution, 37° C., 18 hours; read-out: MIC
Protocol: as §1

[7] = test system: Bacillus subtillis ATCC 6633; assay: MIC by agar dilution method; format: cell-based
Protocol: as §1

Escherichia coli K-12 = assay: MIC by agar dilution method; format: cell-based; settings: K12; Escherichia coli K-12; agar dilution, 37° C., 18 hours; read-out: MIC
Protocol: as §1

E. coli RGN823 = assay: MIC by agar dilution method; format: cell-based; settings: Escherichia coli, 37° C., 18 hours
Protocol: as §1

[8] = test system: Pseudomonas aenginosa IFO3445; assay: MIC by agar dilution method; format: cell-based; settings: 37° C., 18 hours
Protocol: as §1

Serratia marcesceus S18 = assay: MIC by agar dilution method; format: cell-based; settings: 37° C., 18 hours
Protocol: as §1

Ps. aeruginosa NCTC10490 = assay: MIC by agar dilution method; format: cell-based; settings: Pseudomonas aeruginosa, 37° C., 18 hours
Protocol: as §1

Ent. sp. E8 = assay: MIC by agar dilution method; format: cell-based; settings: Ent. sp. E8; agar dilution, 37° C., 18 hours; read-out: MIC
Protocol: as §1

[9] = Physicochemical properties; settings: pale yellow powder
P. sp. P22 = assay: MIC by agar dilution method; format: cell-based; settings: 37° C., 18 hours
Protocol: as §1

[10] = OA-6129A 25 combined with CER <5

CC[C@H]1C(=O)N2C(C(=O)O)=C(SCCNC(=O)CCNC(=O)C(O)C(C)(C)CO)C[C@H]12 (relative stereo) [OA-6129A]
FIC index (Proteus vulgaris GN76; OA-6129A 1.56 combined with ABPC (printed 3.3)): 0.28
FIC index (Proteus vulgaris GN76; OA-6129A 1.56 combined with CER 313): 0.28
FIC index (Proteus vulgaris GN76; OA-6129A 3.13 combined with ABPC 156): 0.19
FIC index (Proteus vulgaris GN76; OA-6129A 3.13 combined with CER 156): 0.19
FIC index (Proteus vulgaris GN76; OA-6129A 6.25 combined with ABPC 39): 0.16
FIC index (Proteus vulgaris GN76; OA-6129A 6.25 combined with CER 39): 0.16
FIC index (Proteus vulgaris GN76; OA-6129A 12.5 combined with ABPC 10): 0.26
FIC index (Proteus vulgaris GN76; OA-6129A 12.5 combined with CER 20): 0.27
FIC index (Proteus vulgaris GN76; OA-6129A 25 combined with ABPC 10): 0.51
FIC index (Proteus vulgaris GN76; [10]): 0.50
MIC (Proteus vulgaris GN76; Proteus vulgaris, GN76, alone, heart infusion broth, 10^5 cells/ml): 50 µg/mL
MIC ([1]; Citrobacter freundii, GN346, alone, heart infusion broth, 10^5 cells/ml): 50 µg/mL
FIC index ([1]; OA-6129A 1.56 combined with ABPC […]): 1.03
FIC index ([1]; OA-6129A 1.56 combined with CER 1250): 1.03
FIC index ([1]; OA-6129A 3.13 combined with ABPC 625): 0.63
FIC index ([1]; OA-6129A 3.13 combined with CER 625): 0.63
FIC index ([1]; OA-6129A 6.25 combined with ABPC […]): 0.38
FIC index ([1]; OA-6129A 6.25 combined with CER 313): 0.38
FIC index ([1]; OA-6129A 12.5 combined with ABPC […]): 0.50
FIC index ([1]; OA-6129A 12.5 combined with CER 313): 0.50
FIC index ([1]; OA-6129A 25 combined with ABPC <5): 0.50
FIC index [1, 10]: 0.50
half-life ([2]; pH 4, 0.05 M phosphate buffer): 1.05 h
half-life ([2]; pH 5, 0.05 M phosphate buffer): 4.07 h
half-life ([2]; pH 6, 0.05 M phosphate buffer): 21.2 h
half-life ([2]; pH 7, 0.05 M phosphate buffer): 57.7 h
half-life ([2]; pH 8, 0.05 M phosphate buffer): 128 h
half-life ([2]; pH 9, 0.05 M phosphate buffer): 132 h
acute toxicity (ddY mice): no acute toxicity is observed
MIC (S. aureus Smith): 1.56 µg/mL (≈ 3.41 µM)
MIC (Comamonas terrigena B996): 0.05 µg/mL (≈ 0.109 µM)
MIC (Ser. marcesceus T55): 100 µg/mL (≈ 219 µM)
MIC [3]: 50 µg/mL (≈ 109 µM)
MIC [4]: 50 µg/mL (≈ 109 µM)
MIC (S. epidermidis): 1.56 µg/mL (≈ 3.41 µM)
MIC (Sarcina lutea S19): 0.78 µg/mL (≈ 1.7 µM)
MIC [5]: 0.78 µg/mL (≈ 1.7 µM)
MIC (Providencia sp. P8): 12.5 µg/mL (≈ 27.3 µM)
MIC (Ent. cloacae 45): 50 µg/mL (≈ 109 µM)
MIC (S. aureus Russell): 0.78 µg/mL (≈ 1.7 µM)
MIC (P. vulgaris GN76): 100 µg/mL (≈ 219 µM)
MIC (P. rettgeri P7): 25 µg/mL (≈ 54.6 µM)
MIC [6]: 25 µg/mL (≈ 54.6 µM)
MIC (Alcaligenes Faecolis A1): 1.56 µg/mL (≈ 3.41 µM)
MIC (Proteus mirabilis P6): 50 µg/mL (≈ 109 µM)
MIC ([7]; Bacillus, ATCC6633, 18 h): 0.39 µg/mL (≈ 0.852 µM)
MIC (Escherichia coli K-12): 12.5 µg/mL (≈ 27.3 µM)
MIC (E. coli RGN823): 12.5 µg/mL (≈ 27.3 µM)
MIC [8]: > 100 µg/mL
MIC (Serratia marcesceus S18): 100 µg/mL (≈ 219 µM)
MIC (Ps. aeruginosa NCTC10490): > 100 µg/mL
MIC (Ent. sp. E8): 12.5 µg/mL (≈ 27.3 µM)
hygroscopicity [9]: hygroscopic

CC(O)[C@@H]1C(=O)N2C(C(=O)O)=C(SCCNC(=O)CCNC(=O)C(O)C(C)(C)CO)C[C@H]12 (relative stereo) [OA-6129B1]
MIC (S. aureus Smith): 1.56 µg/mL (≈ 3.29 µM)
MIC (Comamonas terrigena B996): 0.012 µg/mL (≈ 0.0253 µM)
MIC (Ser. marcesceus T55): 12.5 µg/mL (≈ 26.4 µM)
MIC [3]: > 50 µg/mL
MIC [4]: 6.25 µg/mL (≈ 13.2 µM)
MIC (S. epidermidis): 0.78 µg/mL (≈ 1.65 µM)
MIC (Sarcina lutea S19): 0.1 µg/mL (≈ 0.211 µM)
MIC [5]: 0.1 µg/mL (≈ 0.211 µM)
MIC (Providencia sp. P8): 0.2 µg/mL (≈ 0.422 µM)
MIC (Ent. cloacae 45): 6.25 µg/mL (≈ 13.2 µM)
MIC (S. aureus Russell): 0.78 µg/mL (≈ 1.65 µM)
MIC (P. vulgaris GN76): 50 µg/mL (≈ 106 µM)
MIC (P. rettgeri P7): 0.78 µg/mL (≈ 1.65 µM)
MIC [6]: 3.13 µg/mL (≈ 6.61 µM)
MIC (Alcaligenes Faecolis A1): 0.2 µg/mL (≈ 0.422 µM)
MIC (Proteus mirabilis P6): 0.78 µg/mL (≈ 1.65 µM)
MIC ([7]; ATCC6633, Bacillus subtillis ATCC 6633, agar dilution, 37° C., 18 hours, read-out: MIC): 0.05 µg/mL (≈ 0.106 µM)
MIC (P. sp. P22): > 50 µg/mL
MIC (Escherichia coli K-12): 0.39 µg/mL (≈ 0.824 µM)
MIC (E. coli RGN823): 0.39 µg/mL (≈ 0.824 µM)
MIC [8]: > 50 µg/mL
MIC (Serratia marcesceus S18): 6.25 µg/mL (≈ 13.2 µM)
MIC (Ps. aeruginosa NCTC10490): > 50 µg/mL
MIC (Ent. sp. E8): 0.39 µg/mL (≈ 0.824 µM)

Source: patent publication US4426390A, “Novel β-lactam compounds, process for producing thereof, and use thereof as medicines” (Sanraku-Ocean Co., Ltd., priority 1980, dated 1984)
